{
  "source": "patent US6384193B1",
  "about": "“Agents for the regulation of oestrogen synthesis” (Imperial College of Science Technology and Medicine, priority 1996, dated 2002)",
  "key": {"aromatase activity": {"tested_on": "aromatase activity", "conditions": "IL-6 stimulated fibroblasts derived from sub-cutaneous adipose tissue; Singh et al. 1995; cited from earlier work"}, "[1]": {"tested_on": "MCF-7 breast cancer cells", "conditions": "MCF-7 cells, Singh et al. 1995, cited from earlier work"}, "[2]": {"tested_on": "IL-6 plus IL-6sR stimulated aromatase activity", "assay": "IL-6 plus IL-6sR stimulated aromatase activity in fibroblasts derived from normal breast tissue", "assay_type": "cell-based", "conditions": "Arohib 125 μM added 3 h prior to IL-6 50 ng/ml + IL-6sR 100 ng/ml, serum-free medium", "protocol": "Aromatase activity was assessed in primary cultures of stromal fibroblasts derived from sub-cutaneous adipose tissue. Cells were grown until 80% confluent when they were washed with Earle's balanced salt solution (5 ml) and cultured for 24 h in phenol red-free, serum-free Eagle's minimum essential medium. Experimental media were then added in the presence of dexamethasone (100 nmol/l), IL-6 (50 ng/ml, Bachem, Cambridge, U.K.), or IL-6 plus IL-6sR (250 ng/ml, R & D System Europe Ltd., Abingdon, U.K.) and incubated for a further 48 h.\nAromatase activity was assayed in intact fibroblast monolayers by measuring the production of hu 3H2O from [1β-^3H] androstenedione (15-30 Ci/mmol, NEN-DuPont, Stevenage, U.K.) over a 20 h period (Newton et al., 1986). Aromatase activity measured under these conditions was linear with respect to time for up to 20 h (Macdiarmid et al., 1994). Cell number was determined by counting cell nuclei using a Coulter counter.\nTo examine the ability of Arohib to block the interaction of IL-6sR with gp130, fibroblasts were derived from normal breast tissue and cultured in growth medium containing fetal calf serum. When cells were 80% confluent, this medium was removed and replaced with serum-free medium. Cells were then treated as shown below with the results illustrated in FIG. 2."}},
  "data": [
    {"compound": "IL-6: cytokine interleukin-6", "values": [
      {"measurement": "aromatase activity (in words)", "setting": "aromatase activity", "value": "Significant arbmatase activity was detectable"}
    ]},
    {"compound": "4-hydroxytamoxifen [4-OHT]", "values": [
      {"measurement": "effect on oestradiol-induced increase of IL-6sR release", "setting": "[1]; with oestradiol", "value": "blocked the ability of oestradiol to increase IL-6sR release"},
      {"measurement": "effect on IL-6sR release", "setting": "[1]", "value": "small stimulatory effect"}
    ]},
    {"compound": "C[C@]12CC[C@@H]3c4ccc(O)cc4CC[C@H]3[C@@H]1CC[C@@H]2O", "note": "[Oestradiol, oestradiol]", "values": [
      {"measurement": "effect on IL-6sR release", "setting": "[1]", "value": "markedly increased"}
    ]},
    {"compound": "TNFα", "values": [
      {"measurement": "effect on IL-6sR release", "setting": "[1]", "value": "markedly increased"}
    ]},
    {"compound": "YRLRFELRYRAERSKT (PEPTIDE (1)..(16) sequence of a synthetic peptide corresponding to the regulatory site residues 249-264 of interleukin-6 receptor (IL-6R)) [Arohib, 16 amino acid peptide based upon part of the IL-6R external domain]", "values": [
      {"measurement": "reduction in the ability of IL-6/IL-6sR to stimulate aromatase activity", "setting": "[2]", "value": 67, "unit": "%"}
    ]}
  ]
}
